Results taken from patent publication US20190343908A1, “Therapeutic Combination for the Treatment of Cancer” (Nerium Biotechnology Inc., priority 2011, published 2019).

Key:
[1] = test system: MDA-MB 231 (human breast cancer); assay: Crystal Violet viability assay, MDA-MB 231; format: cell-based; conditions: for CVE 24 h / CVE 48 h / CVE 72 h: Run 3 average
Text: (§1) The Sulforhodamine B and Crystal Violet assays provide information about protein and were used to complement the Methyl-Tetrazolium dye assay. […] It is used for the quantification of cellular proteins of cultured cells. The assay using Crystal Violet, a dye that binds electrostatically to proteins and stains DNA, provides a reliable, simple assay for measuring viability of cells.
(§2) The Methyl Tetrazolium, Sulforhodamine B, and Crystal Violet assays were used to assess cell viabilities. The incubation times were 24 hours, 48 hours, and 72 hours. The Nerium oleander extract Anvirzel™ (a hot water extract of oleander obtained from Salud Integral, Honduras) was tested in concentrations ranging from 0.01 ng/mL to 10 ng/mL.
(§3) Cells were detached by trypsinization (Trypsin-0.25% EDTA, Invitrogen, 25200-072) during the logarithmic phase of culture growth and plated in 96-well plates (18.000 cells/well) (Corning, Costar 359) in a final volume of 200 μl of medium per well. […] The absorbance was measured after 24 hours, 48 hours, and 72 hours of incubation.
[…] Formalin was removed and 0.25% aqueous crystal violet (Sigma, HT901), dissolved in water, was added for 10 minutes at RT. Unbound Crystal Violet was rinsed by washing with water and finally 33% acetic acid was added to dissolve the dye.
(§4) The optical density of each plate was measured on a μQuant spectrophotometer and the data were analyzed with Gen5 software (μQuant Biomolecular Spectrophotometer MQX200 and Gen5™ Microplate Data Collection & Analysis software, BioTek® Instruments. Inc, April 2008). Absorbance was measured at 570 nm for all assays and a second wavelength was measured in order to subtract noise. For the Methyl-Tetrazolium assay this second wavelength was 630 nm and for the Sulforhodamine B and Crystal Violet assays it was 690 nm.

[2] = test system: T47D (human breast cancer); assay: Sulforhodamine B viability assay, T47D; format: cell-based; design: key: absorbance (optical density) at 570 nm, second wavelength subtracted
Text: (§5) Three different viability assays were chosen to complement each other and yielded results dependent on concentration and cell line: the Methyl Tetrazolium dye assay, the Sulforhodamine B fluorescent dye assay, and the Crystal Violet dye assay.
as §1, §2, §3
(§6) For the Sulforhodamine B assay, 96-well plates were fixed by 10% trichloroacetic acid (Fluka, 91228) and were incubated at 4° C. for 1 hour. Afterwards, plates were rinsed with water and cells were stained with 0.4% Sulforhodamine B (Sigma, 341738), dissolved in 1% acetic acid (Carlo Ebra, 401422) for 15 minutes at room temperature (RT). The unbound stain was washed twice with 1% acetic acid. Finally, 10 mM Tris Buffer pH 10.5 (Sigma, T6791) was added to dissolve the dye.
as §4

[3] = test system: CALU-1 (non-small cell lung carcinoma); assay: Sulforhodamine B viability assay, CALU-1; format: cell-based, human
Text: as §5, §1, §2, §3, §6, §4

Q: Which results are given for `N.N.[Cl][Pt][Cl]` [cisplatin]?
A: CVE 24 h Average ([1]; Run 1, 0.1 μg/ml CDDP): 0.161; CVE 48 h Average ([1]; Run 1, 0.1 μg/ml CDDP): 0.939; CVE 72 h Average ([1]; Run 1, 0.1 μg/ml CDDP): 0.768; CVE 24 h Average ([1]; Run 1, 1 μg/ml CDDP): 0.124; CVE 48 h Average ([1]; Run 1, 1 μg/ml CDDP): 0.549; CVE 72 h Average ([1]; Run 1, 1 μg/ml CDDP): 0.375; CVE 48 h Average ([1]; Run 1, 10 μg/ml CDDP): 0.586; CVE 72 h Average ([1]; Run 1, 10 μg/ml CDDP): 0.416; CVE 24 h Average ([1]; Run 1, 100 μg/ml CDDP): 0.098; CVE 48 h Average ([1]; Run 1, 100 μg/ml CDDP): 0.504; CVE 72 h Average ([1]; Run 1, 100 μg/ml CDDP): 0.538; CVE 24 h Average ([1]; Run 2, 0.1 μg/ml CDDP): 0.118; CVE 48 h Average ([1]; Run 2, 0.1 μg/ml CDDP): 0.305; CVE 72 h Average ([1]; Run 2, 0.1 μg/ml CDDP): 0.485; CVE 24 h Average ([1]; Run 2, 1 μg/ml CDDP): 0.042; CVE 48 h Average ([1]; Run 2, 1 μg/ml CDDP): 0.047; CVE 72 h Average ([1]; Run 2, 1 μg/ml CDDP): 0.036; CVE 24 h Average ([1]; Run 2, 10 μg/ml CDDP): 0.125; CVE 48 h Average ([1]; Run 2, 10 μg/ml CDDP): 0.27; CVE 72 h Average ([1]; Run 2, 10 μg/ml CDDP): 0.301; CVE 24 h Average ([1]; Run 2, 100 μg/ml CDDP): 0.074; CVE 48 h Average ([1]; Run 2, 100 μg/ml CDDP): 0.062; CVE 72 h Average ([1]; Run 2, 100 μg/ml CDDP): 0.11; CVE 24 h ([1]; 0.1 μg/ml CDDP): 1.198; CVE 48 h ([1]; 0.1 μg/ml CDDP): 1.239; CVE 72 h ([1]; 0.1 μg/ml CDDP): 1.573; CVE 24 h ([1]; 1 μg/ml CDDP): 0.528; CVE 48 h ([1]; 1 μg/ml CDDP): 0.231; CVE 72 h ([1]; 1 μg/ml CDDP): 0.144; CVE 24 h ([1]; 10 μg/ml CDDP): 0.693; CVE 48 h ([1]; 10 μg/ml CDDP): 0.79; CVE 72 h ([1]; 10 μg/ml CDDP): 0.472; CVE 24 h ([1]; 100 μg/ml CDDP): 0.168; CVE 48 h ([1]; 100 μg/ml CDDP): 0.154; CVE 72 h ([1]; 100 μg/ml CDDP): 0.089; SRB Average ([2]; T47D Run 1, 24 h, 1 μg/ml CDDP): 1.786; SRB Average ([2]; T47D Run 1, 24 h, 10 μg/ml CDDP): 1.586; SRB Average ([2]; T47D Run 1, 24 h, 100 μg/ml CDDP): 1.494; SRB Average ([2]; T47D Run 1, 48 h, 0.1 μg/ml CDDP): 2.029; SRB Average ([2]; T47D Run 1, 48 h, 1 μg/ml CDDP): 1.913; SRB Average ([2]; T47D Run 1, 48 h, 10 μg/ml CDDP): 1.768; SRB Average ([2]; T47D Run 1, 72 h, 0.1 μg/ml CDDP): 2.34; SRB Average ([2]; T47D Run 1, 72 h, 1 μg/ml CDDP): 1.863; SRB Average ([2]; T47D Run 1, 72 h, 10 μg/ml CDDP): 1.428; SRB Average ([2]; T47D Run 2, 24 h, 0.1 μg/ml CDDP): 2.474; SRB Average ([2]; T47D Run 2, 24 h, 1 μg/ml CDDP): 1.601; SRB Average ([2]; T47D Run 2, 24 h, 10 μg/ml CDDP): 1.417; SRB Average ([2]; T47D Run 2, 24 h, 100 μg/ml CDDP): 1.102; SRB Average ([2]; T47D Run 2, 48 h, 0.1 μg/ml CDDP): 2.112; SRB Average ([2]; T47D Run 2, 48 h, 1 μg/ml CDDP): 1.969; SRB Average ([2]; T47D Run 2, 48 h, 10 μg/ml CDDP): 1.988; SRB Average ([2]; T47D Run 2, 48 h, 100 μg/ml CDDP): 1.708; SRB Average ([2]; T47D Run 2, 72 h, 0.1 μg/ml CDDP): 1.969; SRB Average ([2]; T47D Run 2, 72 h, 1 μg/ml CDDP): 1.201; SRB Average ([2]; T47D Run 2, 72 h, 10 μg/ml CDDP): 1.567; SRB Average ([2]; T47D Run 2, 72 h, 100 μg/ml CDDP): 1.513; SRB Average ([2]; T47D Run 3, 24 h, 0.1 μg/ml CDDP): 1.615; SRB Average ([2]; T47D Run 3, 24 h, 1 μg/ml CDDP): 1.846; SRB Average ([2]; T47D Run 3, 24 h, 10 μg/ml CDDP): 1.368; SRB Average ([2]; T47D Run 3, 24 h, 100 μg/ml CDDP): 1.34; SRB Average ([2]; T47D Run 3, 48 h, 0.1 μg/ml CDDP): 2.223; SRB Average ([2]; T47D Run 3, 48 h, 1 μg/ml CDDP): 2.03; SRB Average ([2]; T47D Run 3, 48 h, 10 μg/ml CDDP): 1.974; SRB Average ([2]; T47D Run 3, 48 h, 100 μg/ml CDDP): 1.758; SRB Average ([2]; T47D Run 3, 72 h, 0.1 μg/ml CDDP): 2.044; SRB Average ([2]; T47D Run 3, 72 h, 1 μg/ml CDDP): 1.344; SRB Average ([2]; T47D Run 3, 72 h, 10 μg/ml CDDP): 1.461; Average SRB 24 h ([3]; CALU-1 Run 1, 0.1 μg/ml CDDP): 1.457; Average SRB 48 h ([3]; CALU-1 Run 1, 0.1 μg/ml CDDP): 1.939; Average SRB 72 h ([3]; CALU-1 Run 1, 0.1 μg/ml CDDP): 1.598; Average SRB 24 h ([3]; CALU-1 Run 1, 1 μg/ml CDDP): 1.438; Average SRB 48 h ([3]; CALU-1 Run 1, 1 μg/ml CDDP): 1.991; Average SRB 72 h ([3]; CALU-1 Run 1, 1 μg/ml CDDP): 1.5; Average SRB 24 h ([3]; CALU-1 Run 1, 10 μg/ml CDDP): 1.401; Average SRB 48 h ([3]; CALU-1 Run 1, 10 μg/ml CDDP): 1.563; Average SRB 72 h ([3]; CALU-1 Run 1, 10 μg/ml CDDP): 1.108; Average SRB 24 h ([3]; CALU-1 Run 1, 100 μg/ml CDDP): 1.348; Average SRB 48 h ([3]; CALU-1 Run 1, 100 μg/ml CDDP): 1.521; Average SRB 72 h ([3]; CALU-1 Run 1, 100 μg/ml CDDP): 1.299; Average SRB 24 h ([3]; CALU-1 Run 2, 0.1 μg/ml CDDP): 1.437; Average SRB 48 h ([3]; CALU-1 Run 2, 0.1 μg/ml CDDP): 1.79; Average SRB 72 h ([3]; CALU-1 Run 2, 0.1 μg/ml CDDP): 2.674; Average SRB 24 h ([3]; CALU-1 Run 2, 1 μg/ml CDDP): 1.725; Average SRB 48 h ([3]; CALU-1 Run 2, 1 μg/ml CDDP): 1.837; Average SRB 72 h ([3]; CALU-1 Run 2, 1 μg/ml CDDP): 2.563; Average SRB 24 h ([3]; CALU-1 Run 2, 10 μg/ml CDDP): 1.48; Average SRB 48 h ([3]; CALU-1 Run 2, 10 μg/ml CDDP): 1.702; Average SRB 72 h ([3]; CALU-1 Run 2, 10 μg/ml CDDP): 2.434; Average SRB 24 h ([3]; CALU-1 Run 2, 100 μg/ml CDDP): 1.318; Average SRB 48 h ([3]; CALU-1 Run 2, 100 μg/ml CDDP): 1.541; Average SRB 72 h ([3]; CALU-1 Run 2, 100 μg/ml CDDP): 1.575; Average SRB 24 h ([3]; CALU-1 Run 3, 0.1 μg/ml CDDP, 24 h): 1.492; Average SRB 48 h ([3]; CALU-1 Run 3, 0.1 μg/ml CDDP, 48 h): 1.491; Average SRB 72 h ([3]; CALU-1 Run 3, 0.1 μg/ml CDDP, 72 h): 1.835; Average SRB 24 h ([3]; CALU-1 Run 3, 1 μg/ml CDDP, 24 h): 1.295; Average SRB 48 h ([3]; CALU-1 Run 3, 1 μg/ml CDDP, 48 h): 1.463; Average SRB 72 h ([3]; CALU-1 Run 3, 1 μg/ml CDDP, 72 h): 1.452; Average SRB 24 h ([3]; CALU-1 Run 3, 10 μg/ml CDDP, 24 h): 1.139; Average SRB 48 h ([3]; CALU-1 Run 3, 10 μg/ml CDDP, 48 h): 1.152; Average SRB 72 h ([3]; CALU-1 Run 3, 10 μg/ml CDDP, 72 h): 1.193; Average SRB 24 h ([3]; CALU-1 Run 3, 100 μg/ml CDDP, 24 h): 0.98; Average SRB 48 h ([3]; CALU-1 Run 3, 100 μg/ml CDDP, 48 h): 1.449; Average SRB 72 h ([3]; CALU-1 Run 3, 100 μg/ml CDDP, 72 h): 1.264
